One data set addresses hCB1 (Homo sapiens, UniProt P21554). Put plainly: Agonism of CB1 receptors expressed in CHO cells, forskolin cAMP assay (Protocol IX.2). The format is cell-based. More on the design: expressed in transfected cells; host or cells: CHO (h-CB1/CHO, G418-selected). The following applies: for activation at 10 µM: CHO. The method, boiled down: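 CHO cells stably expressing hCB1 stimulated with forskolin in Krebs buffer with 0.1% FAF BSA and 1 mM IBMX. Lysed cells' cAMP measured by chemiluminescence; EC50 from nonlinear regression of dose-response curves.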
For orientation: cAMP levels reflect the balance of adenylyl cyclase and phosphodiesterase activity.

Data set [1] has as its target T1, hCB2 (Homo sapiens, UniProt P34972). Briefly: Agonism of CB2 receptors expressed in CHO cells, forskolin cAMP assay (Protocol IX.2). The format is cell-based. More on the design: expressed in transfected cells; host or cells: CHO (h-CB2/CHO, G418-selected). Particulars: cAMP. The method, boiled down:
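CHO cells expressing h-CB2 were treated with compound in Krebs buffer with 0.1% FAF BSA and 1 mM IBMX, plus 10 uM forskolin, for 30 minutes at room temperature. cAMP in lysates was measured by chemiluminescence. EC50 was derived by nonlinear regression of dose–response curves, with CP 55,940 at 10 μM as reference for CB2.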

The target in data set [2] is T1, hCB2. Put plainly: In vitro binding assay using hCB2-CHO membranes, [3H]-CP-55,940 displacement (Protocol IV). The following applies: for inhibition at 0.3 µM: 1 h, read-out: % Displacement Protocol IV. On the set-up: expressed in transfected cells; host or cells: CHO (hCB2-CHO, generated in-house). The method, boiled down: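 Compounds were tested at a single 300 nM final concentration for displacing 0.75 nM [3H]-CP-55,940 from hCB2-CHO membranes (1 h, 30 °C, 50 mM Tris pH 7.4, 5 mM MgCl2, 1 mM EDTA, 0.1% BSA). Filter-bound radioactivity was counted, with 0.5 μM unlabelled CP-55,940 for nonspecific binding; results are % displacement.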

A further data set addresses CB1 (Rattus norvegicus, UniProt P20272). Briefly: Rat CB1 receptor binding using brain membrane, [3H]SR141716A displacement (Protocol I). More on the design: CB1 receptor present in a rat brain membrane preparation; from tissue; host or cells: rat brain membrane; inhibition: dose or concentration left out as unconfirmed. The following applies: for inhibition: 1 h.
The mark [3] stands for this setting: at 10 uM, h-CB1/CHO cells, cAMP.
The mark [4] stands for this setting: hCB2 Agonism IC50, h-CB2/CHO cells.
The mark [5] stands for this setting: hCB2-CHO membranes, [3H]-CP-55,940 displacement.
The mark [6] stands for this setting: rat brain membrane, [3H]SR141716A displacement, read-out: % Displacement Protocol I.
Where [7] appears, read: bare number, no unit or concentration given.

pIC50: −log10 of the molar value. Where two headings read alike, the source gives them in different places.

Chain of hCB1 (P21554 whole entry): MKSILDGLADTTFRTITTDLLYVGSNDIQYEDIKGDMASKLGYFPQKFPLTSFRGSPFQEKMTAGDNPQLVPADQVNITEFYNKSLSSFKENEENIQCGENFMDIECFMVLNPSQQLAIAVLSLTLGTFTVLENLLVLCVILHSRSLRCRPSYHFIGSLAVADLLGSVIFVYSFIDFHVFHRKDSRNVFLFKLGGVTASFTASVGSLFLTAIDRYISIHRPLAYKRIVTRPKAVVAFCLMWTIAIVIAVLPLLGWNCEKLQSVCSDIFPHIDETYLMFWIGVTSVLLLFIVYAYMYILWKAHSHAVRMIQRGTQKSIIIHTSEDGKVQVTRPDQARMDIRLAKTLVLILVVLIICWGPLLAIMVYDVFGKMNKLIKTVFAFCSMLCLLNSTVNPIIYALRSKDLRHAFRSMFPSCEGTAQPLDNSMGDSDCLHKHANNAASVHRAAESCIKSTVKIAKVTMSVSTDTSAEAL
Chain of CB1 (P20272 whole entry): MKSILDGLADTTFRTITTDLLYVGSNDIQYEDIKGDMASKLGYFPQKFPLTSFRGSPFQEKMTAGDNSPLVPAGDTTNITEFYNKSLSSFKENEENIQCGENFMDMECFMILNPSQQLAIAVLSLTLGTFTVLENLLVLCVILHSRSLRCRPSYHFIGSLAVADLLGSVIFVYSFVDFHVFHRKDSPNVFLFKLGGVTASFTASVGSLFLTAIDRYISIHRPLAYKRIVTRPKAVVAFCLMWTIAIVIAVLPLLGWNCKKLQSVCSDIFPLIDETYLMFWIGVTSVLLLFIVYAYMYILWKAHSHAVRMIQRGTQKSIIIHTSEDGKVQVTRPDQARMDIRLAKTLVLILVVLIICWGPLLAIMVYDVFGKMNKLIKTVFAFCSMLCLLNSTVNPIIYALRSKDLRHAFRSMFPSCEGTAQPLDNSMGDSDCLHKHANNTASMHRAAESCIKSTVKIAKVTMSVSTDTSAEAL
T1 sequence (P34972 whole entry): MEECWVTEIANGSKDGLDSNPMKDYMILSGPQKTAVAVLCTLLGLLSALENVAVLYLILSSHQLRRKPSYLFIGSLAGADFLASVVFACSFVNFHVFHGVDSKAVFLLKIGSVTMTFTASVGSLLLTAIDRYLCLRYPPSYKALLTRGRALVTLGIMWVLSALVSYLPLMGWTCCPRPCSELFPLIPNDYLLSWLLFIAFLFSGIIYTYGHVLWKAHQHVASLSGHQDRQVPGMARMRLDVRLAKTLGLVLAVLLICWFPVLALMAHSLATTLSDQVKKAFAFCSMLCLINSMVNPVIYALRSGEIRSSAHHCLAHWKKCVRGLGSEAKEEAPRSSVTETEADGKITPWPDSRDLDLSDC

As to `O=C(NC1CCCCC1)c1nn(-c2ccc(Br)cc2)c2c1C1CCC2C1` (stereo not shown) [Example 275, N(3)-Cyclohexyl-1-(4-bromophenyl)-4,5,6,7-tetrahydro-1H-4,7-methano-indazole-3-carboxamide], the melting point (in general, the temperature, or range, at which the solid turns liquid) turned out to be 164 °C. On hCB1 (setting [3]), this molecule had an activation at 10 µM of 16.4%. The pIC50 (in general, −log10 of the IC50, conventionally taken in molar units) on hCB2 [1] (setting [4]) is 8.35. Further, the inhibition at 0.3 µM at hCB2 [2] (setting [5]) turned out to be 72.3%. For the same molecule, the inhibition at CB1 (setting [6]) was 38.8%.
On to `O=C(NCc1ccc(Cl)cc1Cl)c1nn(-c2ccc(Cl)cc2Cl)c2c1C1CCC2C1` (stereo not shown) [Example 251, N(3)-(2,4-Dichlorobenzyl)-1-(2,4-dichlorophenyl)-4,5,6,7-tetrahydro-1H-4,7-methano-indazole-3-carboxamide], for which the melting point lay in the range of 57 to 59 °C. This molecule also had an activation at 10 µM on hCB1 (setting [3]) of 37%. This molecule showed a pIC50 against hCB2 [1] (setting [4]) of 7.40. For the same molecule, on hCB2 [2] (setting [5]), the inhibition at 0.3 µM came out at 60.2%. The inhibition at CB1 (setting [6]) was 42.3%.
For `CN(NC(=O)c1nn(-c2ccc(Cl)cc2)c2c1C1CCC2C1)C1CCCCC1` (stereo not shown) [Example 213, N(3)-[(N-Cyclohexyl-N-methyl)amino]-1-(4-chlorophenyl)-4,5,6,7-tetrahydro-1H-4,7-methano-indazole-3-carboxamide], in that order: 62 °C, 0%, 7.90, 71.8% and 48.5%.
On to `O=C(NNc1ccccc1Cl)c1nn(-c2ccc(Cl)cc2Cl)c2c1C1CCC2C1` (stereo not shown) [Example 257, N(3)-[(2-Chlorophenyl)amino]-1-(2,4-dichlorophenyl)-4,5,6,7-tetrahydro-1H-4,7-methano-indazole-3-carboxamide], for which the melting point lay in the range of 180 to 183 °C. Besides, the “hCB1 Agonism” value at hCB1 (setting [7]) is reported as 0. This molecule also gave a pIC50 on hCB2 [1] (setting [4]) of 8.43. Besides, the inhibition at 0.3 µM at hCB2 [2] (setting [5]) was determined as 83.9%. Moreover, the inhibition at CB1 (setting [6]) came to 73.5%.
`O=C(NCc1ccccc1Cl)c1nn(-c2ccc(Cl)cc2)c2c1C1CCC2C1` (stereo not shown) [Example 221, N(3)-(2-Chlorobenzyl)-1-(4-chlorophenyl)-4,5,6,7-tetrahydro-1H-4,7-methano-indazole-3-carboxamide] yielded a melting point of 119 to 122 °C. In addition, the activation at 10 µM at hCB1 (setting [3]) came out at 0%. Moreover, the negative-log IC50 (pIC50) on hCB2 [1] (h-CB2/CHO cells, read-out: hCB2 Agonism IC50) was 7.44. The inhibition at 0.3 µM on hCB2 [2] came out at 75.7%. In addition, the inhibition at CB1 (read-out: % Displacement Protocol I, rat brain membrane, [3H]SR141716A displacement) was 68.6%.
`O=C(NNc1ccccc1Br)c1nn(-c2ccc(Cl)cc2Cl)c2c1C1CCC2C1` (stereo not shown) [Example 263, N(3)-[(2-Bromophenyl)amino]-1-(2,4-dichlorophenyl)-4,5,6,7-tetrahydro-1H-4,7-methano-indazole-3-carboxamide] yielded a melting point of 159 °C. For the same molecule, the activation at 10 µM at hCB1 (setting [3]) amounted to 16.2%. The molecule also had a negative logarithm of the IC50 (pIC50) against hCB2 [1] (setting [4]) of 8.60. Moreover, the inhibition at 0.3 µM on hCB2 [2] (setting [5]) is 79%. Further, the inhibition at CB1 (setting [6]) was 69.1%.
On to `O=C(NN1CCCCC1)c1nn(-c2ccc(Cl)cc2)c2c1C1CC3CC(C1)CC2C3` [Example 140, N(7)-Piperidino-5-(4′-chlorophenyl)-5,6-diazatetracyclo[7.3.1.1^3,11.0^4,8]tetradeca-4(8)-6-diene-7-carboxamide], for which the “hCB1 Agonism” value at hCB1 (setting [3]) is reported as 48.88% at. Besides, the “% Displacement Protocol IV” value on hCB2 [2] (setting [5]) was found to be 15.79%. In addition, the “% Displacement Protocol I” value at CB1 (rat brain membrane, [3H]SR141716A displacement) came to 50.4%.
With `O=C(NNc1ccc(Cl)cc1Cl)c1nn(-c2ccc(Cl)cc2Cl)c2c1C1CCC2C1` (stereo not shown) [Example 260, N(3)-[(2,4-Dichlorophenyl)amino]-1-(2,4-dichlorophenyl)-4,5,6,7-tetrahydro-1H-4,7-methano-indazole-3-carboxamide], the “hCB1 Agonism” value on hCB1 (setting [7]) was 0. Moreover, at hCB2 [1] (setting [4]), the pIC50 is 8.39. Further, the inhibition at 0.3 µM on hCB2 [2] (setting [5]) was 80.2%. In addition, the inhibition at CB1 (setting [6]) came out at 84.4%.

The values above are taken from US7923465B2, “Cannabinoid receptor ligands, pharmaceutical compositions containing them, and process for their preparation” (priority 2005, dated 2011).
